Six compounds from ChEMBL document CHEMBL1129258, “Synthesis and structure-activity relationships of 2-pyridones: a novel series of potent DNA gyrase inhibitors as antibacterial agents” (J Med Chem, 1996) can be followed below.

The target in data set [1] is T1, DNA gyrase (Escherichia coli) (UniProt P0AES6+P0AES4). The data set can be described thus: In vitro antibacterial activity against gram-negative organism Klebsiella pneumoniae ATCC 8045. Format: functional.
A further data set concerns Pseudomonas aeruginosa. The data set can be described thus: In vivo efficacy against Pseudomonas aeruginosa 5007 following p.o. administration.
Data set [2] in a line: in vivo. As to conditions: rat, plasma, po, 5 mg/kg.
The target of data set [3] is T2, DNA gyrase (Staphylococcus aureus) (UniProt P0A0K8+P20831). The data set can be described thus: In vitro antibacterial activity against gram-positive organism Staphylococcus aureus 1775. Format: functional.
T2 sequence (P0A0K8 2-644 limits assumed): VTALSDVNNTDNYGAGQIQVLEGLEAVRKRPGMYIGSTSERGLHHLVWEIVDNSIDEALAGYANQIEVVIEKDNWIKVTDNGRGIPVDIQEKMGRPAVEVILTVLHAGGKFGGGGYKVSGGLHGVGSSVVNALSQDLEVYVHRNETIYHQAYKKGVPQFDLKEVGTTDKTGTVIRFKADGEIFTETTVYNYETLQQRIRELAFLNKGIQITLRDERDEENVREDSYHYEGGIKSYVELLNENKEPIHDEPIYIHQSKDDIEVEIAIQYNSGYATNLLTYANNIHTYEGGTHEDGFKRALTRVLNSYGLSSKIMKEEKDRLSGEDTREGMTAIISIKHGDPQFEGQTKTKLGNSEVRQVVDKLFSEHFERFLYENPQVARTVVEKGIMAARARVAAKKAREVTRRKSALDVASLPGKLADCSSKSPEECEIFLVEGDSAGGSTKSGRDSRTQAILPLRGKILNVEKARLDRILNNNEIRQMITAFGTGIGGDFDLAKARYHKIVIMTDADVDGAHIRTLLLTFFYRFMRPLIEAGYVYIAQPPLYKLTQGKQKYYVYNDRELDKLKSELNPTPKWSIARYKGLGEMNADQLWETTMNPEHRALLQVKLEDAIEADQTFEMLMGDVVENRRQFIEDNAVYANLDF
T2 sequence (P20831 whole entry partner): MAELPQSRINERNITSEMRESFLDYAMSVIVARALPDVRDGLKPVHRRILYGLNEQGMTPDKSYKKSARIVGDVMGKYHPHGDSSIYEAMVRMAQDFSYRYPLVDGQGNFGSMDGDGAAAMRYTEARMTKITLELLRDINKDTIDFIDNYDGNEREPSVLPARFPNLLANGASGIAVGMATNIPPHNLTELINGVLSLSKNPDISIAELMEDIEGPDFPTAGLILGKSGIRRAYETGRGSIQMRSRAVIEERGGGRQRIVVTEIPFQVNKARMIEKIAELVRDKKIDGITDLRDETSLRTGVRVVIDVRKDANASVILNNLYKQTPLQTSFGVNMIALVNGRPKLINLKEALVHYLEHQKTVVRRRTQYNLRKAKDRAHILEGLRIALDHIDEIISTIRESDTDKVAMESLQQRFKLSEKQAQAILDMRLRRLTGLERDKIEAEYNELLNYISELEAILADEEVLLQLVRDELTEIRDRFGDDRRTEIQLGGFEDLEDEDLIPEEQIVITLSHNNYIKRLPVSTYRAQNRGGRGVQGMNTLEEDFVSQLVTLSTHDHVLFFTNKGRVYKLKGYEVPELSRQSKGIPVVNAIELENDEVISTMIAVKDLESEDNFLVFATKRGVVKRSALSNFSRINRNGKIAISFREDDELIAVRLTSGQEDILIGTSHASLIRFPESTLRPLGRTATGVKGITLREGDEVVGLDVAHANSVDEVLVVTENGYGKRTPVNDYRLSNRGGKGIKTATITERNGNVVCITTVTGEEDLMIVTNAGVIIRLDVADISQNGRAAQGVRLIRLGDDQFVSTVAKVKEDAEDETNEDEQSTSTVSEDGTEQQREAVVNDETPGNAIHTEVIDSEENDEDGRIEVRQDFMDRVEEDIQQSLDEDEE
For data set [4], the target named is T1, DNA gyrase (Escherichia coli). The data set can be described thus: In vitro antibacterial activity against gram-positive organism Streptococcus bovis A-5169. Format: functional. To be noted: Streptococcus equinus.
Data set [5] is described as follows: In vitro antibacterial activity against gram-negative organism Pseudomonas aeruginosa DPHD-2862. As to conditions: Pseudomonas aeruginosa; read-out: MIC. Format: functional.
In data set [6] the target is T1, DNA gyrase (Escherichia coli). The data set can be described thus: In vitro antibacterial against gram-negative organism Escherichia coli JUHL. Format: functional. As to conditions: Escherichia coli K-12.
Data set [7] has the same target. The data set can be described thus: In vitro antibacterial activity against gram-positive organism Enterococcus faecium ATCC 8043. It is filed as functional.
Data set [8] shares this target. The data set can be described thus: In vitro antibacterial activity against gram-negative organism […] ATCC 13048. It is filed as functional. As to conditions: Enterobacter aerogenes.
Data set [9] in a line: In vivo efficacy against Pseudomonas aeruginosa 5007 after subcutaneous administration. It is filed as functional. As to conditions: Pseudomonas aeruginosa, sc; read-out: ED50.
For data set [10], the target named is T1, DNA gyrase (Escherichia coli). The data set can be described thus: In vivo efficacy against Escherichia coli JUHL after oral administration. It is filed as functional, organism-based. To be noted: Escherichia coli K-12.
The subject of data set [11] is Streptococcus pneumoniae. The data set can be described thus: (§1) In vivo efficacy against Strep. administration. It is filed as functional.
The target in data set [12] is T1, DNA gyrase (Escherichia coli). The data set can be described thus: In vitro antibacterial activity against gram-negative organism Prov. stuartii CMX-640. Format: functional. As to conditions: Providencia stuartii.
In data set [13] the target is T2, DNA gyrase (Staphylococcus aureus). The data set can be described thus: In vivo efficacy against Staphylococcus aureus NCTC-10649M after subcutaneous administration. It is filed as functional, organism-based.
The next data set relates to Enterococcus faecalis. The data set can be described thus: Inhibitory activity against enterococcus faecalis Van B. Format: functional.
Data set [14] concerns the target T2, DNA gyrase (Staphylococcus aureus). The data set can be described thus: In vitro antibacterial activity against gram-positive organism Staphylococcus aureus ATCC 6538p. Format: functional.
Data set [15] in a line: in vivo. To be noted: rat, po, 5 mg/kg.
Description: Oral bioavailability in rat (dose 5 mg/kg)
In the next data set the test system is Enterococcus faecium. The data set can be described thus: Inhibitory activity against enterococcus faecium Van A. Format: functional.
A further data set relates to Streptococcus pyogenes. The data set can be described thus: In vitro antibacterial activity against gram-positive organism Streptococcus pyogenes EES61. Format: functional.
Data set [16] is described as follows: Maximum plasma concentration in rats after an oral dose of 5 mg/kg. To be noted: rat.
Data set [17] addresses T2, DNA gyrase (Staphylococcus aureus). The data set can be described thus: In vivo efficacy against Staphylococcus aureus NCTC-10649M after oral administration. It is filed as functional, organism-based.
Data set [18] can be described thus: In vitro antibacterial activity against gram-negative organism Pseudomonas aeruginosa 5007. As to conditions: Pseudomonas aeruginosa; read-out: MIC. Format: functional.
For data set [19], the system named is Streptococcus pneumoniae. The description is as §1. It is filed as functional. This is another data set of the same source.
Data set [20] has as its target T2, DNA gyrase (Staphylococcus aureus). The data set can be described thus: In vitro antibacterial activity against gram-positive organism Staphylococcus aureus NCTC-10649M. It is filed as functional.
For data set [21], the target named is T1, DNA gyrase (Escherichia coli). The data set can be described thus: In vivo efficacy against Escherichia coli JUHL by subcutaneous administration. It is filed as functional, organism-based. As to conditions: Escherichia coli K-12.
Data set [22] shares this target. To be noted: Escherichia coli K-12.
Description: Concentration which causes 50% of the gyrase (Escherichia coli H560)-mediated maximal DNA cleavage.
The subject of data set [23] is Streptococcus pneumoniae. The data set can be described thus: In vivo efficacy against Strep. administered. It is filed as functional.
[24] abbreviates: Streptococcus pneumoniae, read-out: ED50.
[25] abbreviates: Streptococcus pyogenes, read-out: MIC.

≈ marks a conversion by molar mass, not a printed value.

As to `Cc1c(N2CC[C@H](N)C2)c(F)cn2c(=O)c(C(=O)O)cc(C3CC3)c12` [ABT-719], the MIC was 5 ng/mL (≈ 0.0145 µM) in data set [1]; 0.78 µg/mL (≈ 2.26 µM) in data set [3]; 0.02 µg/mL (≈ 0.0579 µM) in data set [4]; 0.78 µg/mL (≈ 2.26 µM) in data set [5]; 2 ng/mL (≈ 0.00579 µM) in [6]; 0.02 µg/mL (≈ 0.0579 µM) in [7]. Further, the MIC in data set [8] was determined as 0.005 µg/mL (≈ 0.0145 µM); in [12] it was 0.2 µg/mL (≈ 0.579 µM); against Enterococcus faecalis, 0.03 µg/mL (≈ 0.0869 µM); in data set [14] it was 0.01 µg/mL (≈ 0.029 µM); against Enterococcus faecium it was 0.25 µg/mL (≈ 0.724 µM); in the data set on Streptococcus pyogenes (setting [25]), 0.02 µg/mL (≈ 0.0579 µM). The MIC is 0.05 µg/mL (≈ 0.145 µM) in data set [18] and 0.01 µg/mL (≈ 0.029 µM) in data set [20]. For the same compound, the ED50 worked out at 14.5 mg/kg with Pseudomonas aeruginosa; 1.9 mg/kg in data set [9]; 0.6 mg/kg in data set [10]; 5.3 mg/kg with Streptococcus pneumoniae [11] (setting [24]); 0.6 mg/kg in [13]; 3.4 mg/kg in [17]. Moreover, the median effective dose (ED50) in the data set on Streptococcus pneumoniae [19] was 1.6 mg/kg; in data set [21] it was 0.1 mg/kg. For the same compound, the half-life in the data set “in vivo [2]” was 72 min. For the same compound, the bioavailability in the data set “in vivo [15]” turned out to be 32%. The Cmax in data set [16] amounted to 270 ng/mL. The compound further yielded a CC50 in data set [22] of 0.03 µg/mL (≈ 0.0869 µM).

Regarding `Cc1c(N2C[C@@H](N)[C@@H](C)C2)c(F)cn2c(=O)c(C(=O)O)cc(C3CC3)c12`, the MIC in data set [1] turned out to be 5 ng/mL (≈ 0.0139 µM); in data set [3], 0.78 µg/mL (≈ 2.17 µM); in data set [4], 0.02 µg/mL (≈ 0.0556 µM); in [5] it was 1.56 µg/mL (≈ 4.34 µM); in [6], 5 ng/mL (≈ 0.0139 µM); in data set [7], 0.05 µg/mL (≈ 0.139 µM). Besides, the MIC in data set [8] stood at 0.02 µg/mL (≈ 0.0556 µM); in data set [12], 0.78 µg/mL (≈ 2.17 µM); in data set [14], 0.02 µg/mL (≈ 0.0556 µM); in the data set on Streptococcus pyogenes (setting [25]), 0.05 µg/mL (≈ 0.139 µM); in data set [18], 0.1 µg/mL (≈ 0.278 µM); in data set [20] it was 0.02 µg/mL (≈ 0.0556 µM). In the data set “in vivo [2]”, this compound had a half-life of 126 min. This compound also gave a bioavailability in “in vivo [15]” of 23%. The compound further displayed a Cmax in [16] of 170 ng/mL. In data set [22], the CC50 came to 0.06 µg/mL (≈ 0.167 µM).

For the compound `Cc1c(N2C[C@@H]3CCCN[C@@H]3C2)c(F)cn2c(=O)c(C(=O)O)cc(C3CC3)c12` (stereo in doubt; (S,S)45n), the MIC in data set [5] is 3.1 µg/mL (≈ 8.04 µM); against Streptococcus pyogenes it was 0.05 µg/mL (≈ 0.13 µM); in [18] it was 0.2 µg/mL (≈ 0.519 µM). Moreover, the ED50 in [9] was above 8 mg/kg; with Streptococcus pneumoniae [11], 3.6 mg/kg; with Streptococcus pneumoniae [23] (setting [24]), 2.2 mg/kg.

As to `Cc1c(N2CCC(n3cccc3)C2)c(F)cn2c(=O)c(C(=O)O)cc(C3CC3)c12` (centres undefined), the MIC in data set [1] is 50 ng/mL (≈ 0.126 µM); in [3], 0.39 µg/mL (≈ 0.986 µM); in data set [4] it was 0.2 µg/mL (≈ 0.506 µM); in [5], 25 µg/mL (≈ 63.2 µM); in [6], 100 ng/mL (≈ 0.253 µM); in data set [7], 0.1 µg/mL (≈ 0.253 µM). The MIC in data set [8] amounted to 0.39 µg/mL (≈ 0.986 µM); in data set [12], 1.56 µg/mL (≈ 3.95 µM); in the data set with Enterococcus faecalis, 0.03 µg/mL (≈ 0.0759 µM); in data set [14], 0.02 µg/mL (≈ 0.0506 µM); with Enterococcus faecium, 0.5 µg/mL (≈ 1.26 µM); in the data set on Streptococcus pyogenes (setting [25]) it was 0.1 µg/mL (≈ 0.253 µM). Besides, the MIC in data set [18] is 1.56 µg/mL (≈ 3.95 µM); in data set [20], 0.01 µg/mL (≈ 0.0253 µM). In data set [22], this compound displayed a CC50 of 0.04 µg/mL (≈ 0.101 µM).

Consider `Cc1c(N2CCC(CN)C2)c(F)cn2c(=O)c(C(=O)O)cc(C3CC3)c12` (centres undefined), for which the MIC in data set [1] was 5 ng/mL (≈ 0.0139 µM); in data set [3], 0.39 µg/mL (≈ 1.09 µM); in data set [4], 0.002 µg/mL (≈ 0.00556 µM); in [5] it was 1.56 µg/mL (≈ 4.34 µM); in data set [6] it was 5 ng/mL (≈ 0.0139 µM); in [7], 0.01 µg/mL (≈ 0.0278 µM). The MIC in [8] came to 0.01 µg/mL (≈ 0.0278 µM); in data set [12], 0.39 µg/mL (≈ 1.09 µM); in the data set on Enterococcus faecalis, 0.015 µg/mL (≈ 0.0417 µM); in data set [14], 0.002 µg/mL (≈ 0.00556 µM); with Enterococcus faecium it was 0.03 µg/mL (≈ 0.0835 µM); in the data set with Streptococcus pyogenes (setting [25]) it was 0.002 µg/mL (≈ 0.00556 µM). Besides, the figures for the MIC in data set [18] and in data set [20] were 0.1 µg/mL (≈ 0.278 µM) and 0.002 µg/mL (≈ 0.00556 µM), respectively. This compound had a CC50 in data set [22] of 0.05 µg/mL (≈ 0.139 µM).

On to `Cc1c(N2C[C@@H](C)N[C@@H](C)C2)c(F)cn2c(=O)c(C(=O)O)cc(C3CC3)c12`, for which the MIC in data set [1] was 20 ng/mL (≈ 0.0536 µM); in [3] it was 6.2 µg/mL (≈ 16.6 µM); in [4], 0.78 µg/mL (≈ 2.09 µM); in data set [5], 12.5 µg/mL (≈ 33.5 µM); in data set [6] it was 20 ng/mL (≈ 0.0536 µM); in data set [7], 0.39 µg/mL (≈ 1.04 µM). The MIC in data set [8] worked out at 0.1 µg/mL (≈ 0.268 µM); in [12], 3.1 µg/mL (≈ 8.3 µM); in data set [14], 0.1 µg/mL (≈ 0.268 µM); in the data set with Streptococcus pyogenes (setting [25]) it was 0.39 µg/mL (≈ 1.04 µM); in [18], 1.56 µg/mL (≈ 4.18 µM); in [20] it was 0.1 µg/mL (≈ 0.268 µM). Also, the ED50 is 12.7 mg/kg in the data set on Pseudomonas aeruginosa; above 8 mg/kg in [9]; 2.1 mg/kg in data set [10]; 49.4 mg/kg in the data set on Streptococcus pneumoniae [11]; 4.4 mg/kg in data set [13]; above 8 mg/kg with Streptococcus pneumoniae [23]. In addition, the ED50 in data set [17] was found to be 4.8 mg/kg; in data set [21], 1.3 mg/kg. The CC50 in [22] is 1.8 µg/mL (≈ 4.82 µM).
